Laboratory results published in patent publication US20030170223A1, “Pulmonary vasodilator surfactant compositions and method of use” (Board of Trustees of Michigan State University, priority 2002, published 2003).

Experiments:
[1] = test system: PA smooth muscle cell contraction in the lungs from new born rats (U46619 vasoconstriction); test: Non-specific inhibition test: U46619 vasoconstriction response in isolated perfused lungs; design: species or system Sprague-Dawley rats; settings: U46619 5 ng/mL
Method: (§1) Isolated perfused lung preparation prepared from newborn rats. Male or female newborn (less than 48 hours old) Sprague-Dawley rats are anesthetized with pentobarbital sodium (0.65 mg/kg; ip), and heparin (1000 U/kg) is administered intravenously. Lungs are isolated as follows. Briefly, the lungs and the heart are remove en block and the pulmonary artery (PA) and left atrium are cannulated and perfused with a buffered salt solution (BSS) (NaCl (117 mM), KCl (4 mM), NaHCO3 (18 mM), MgSO4 (0.76 mM), NaHPO4′H2O (1 mM), CaCl2 (1.21 mM), and glucose (1 g/L)) containing bovine serum albumin (0.5% w/v) and indomethacin (10 mg/L). After flushing the pulmonary circulation with perfusate (100-200 mL), the lungs are perfused from a recirculating system (35 mL) at 8 mL/min. Perfusate is maintained at […], pH 7.4, and bubbled with 5% O2, 5% CO2, and 90% N2. Left atrial pressure is maintained at 1 cm H2O2 by elevating the venous outflow cannula. The lungs are ventilated with a small animal respirator using a humidified gas mixture of 21% O2, 5% CO2, and 74% N2 (normoxia) at a rate of 54 breaths/in, a tidal volume of 2-3 mL and an end-expiratory pressure of 3 cm H2O2. Left atrial and PA pressures are continuously recorded on a multichannel strip chart recorder (Grass Instruments, Quincy, Mass.).
Hypoxia-induced changes in pulmonary vascular impedance are represented as the change in PA pressure observed during hypoxic ventilation under constant flow conditions, compared with normoxia, in cm H2O. Two hypoxic challenges are performed and averaged to define the baseline response prior to the experimental intervention, thus allowing each lung to act as its own control. The experimental agents then are added to the reservoir and allowed to recirculate for 5-10 minutes, after which two more hypoxic challenges are administered and averaged to evaluate the effects of the intervention. In the continued presence of the experimental agents, the stable thromboxane A2 analog, U46619 (5 ng/mL) is then added to the reservoir to determine the effect on the ability to respond to a receptor-mediated vasoconstricting agonist. This provided a measure of the specificity of the intervention for the response to hypoxia.
Non-specific inhibition of PA smooth muscle cell contraction in the lungs from new born rats. To determine whether the pharmacological agents that inhibited the HPV response in our study might also affect the response a receptor-mediated vasoconstrictor, studies are carried out using the stable Thromboxane A2 analog, U46619 (5 ng/mL). Experiments are performed to assess the U46619 response before and after the addition of the experimental agents. Briefly, lungs are subjected to a challenge of U46619 and the change in PA pressure is measured. The vasculature is then washed out with fresh perfusate until the PA pressure returned to baseline (approximately 10 minutes elapsed time), after which the experimental agents are administered to the reservoir. After 10 minutes, a second dose of U46619 is added to the reservoir and the change in PA pressure is measured. Only Rotenone blunted the U46619 vasoconstriction at 5 μg/mL. Myxothiazol (50 μg/mL), cyanide (10 μM), ebselen (50 μM), and DDC (1 μM) had no effect on the U46619 vasoconstriction response. DPI (10 μM), rotenone (50 ng/mL), antimycin A (1 ng/mL), PDTC (10 μM), and DIDS (200 μM) augmented the U46619 vasoconstriction response.

[2] = aqueous solutions; cited from earlier work
[3] = test system: degradation of IκB-β / NF-κB; settings: in vivo and experimental lung transplant preservation media; cited from earlier work
PA myocytes [4] = settings: 10 μM
Method: To confirm that the loss of DCF fluorescence upon reoxygenation is not due to cell death subsequent to the opening of the mitochondrial permeability transition pore, additional studies are carried out using tetraethyrhodamine methyl ester (TMRE) to assess mitochondrial membrane potential (ΔΨm). This cationic dye equilibrates across the mitochondrial inner membrane in accordance with the AΔΨm, and changes in endothelia fluorescence at these non-quenching concentrations can be used to detect changes in mitochondrial polarization. PA myocytes on collagen-coated cover slips are loaded with TMRE (100 nM) for 45 minutes at 37° C. The cells are then placed in a flow-through chamber on an inverted microscope and perfused with M199 media without serum containing TMRE (10 nM). Fluorescence images are obtained under baseline normoxic conditions (16% O2/5% CO2) until a stable baseline is established. The PO2 of the media is then lowered for 30 mm (1% O2/5% CO2), after which it is restored to normoxia for 30 minutes.

PA endothelia myocytes = test: DCFH oxidation (ROS probe) sensitivity check; assay type: cell-based, rat
Method: Pulmonary microvessel endothelia isolation and measurement of reactive oxygen species (ROS). ROS generation in pulmonary endothelia and myocytes is assessed using the probe 2′,7′-dichlorofluorescin diacetate (DCFH-DA, 5 μM Molecular Probes), which is continuously present in the perfusate. The diacetate form enters the cells where esterases cleave the acetate group, tending to trap the nonfluorescent 2′,7′-dichlorofluorescin (DCFH) intracellularly. In the presence of H2O2, this probe is oxidized to 2′,7′-dichlorofluorescein (DCF), which is quantified using fluorescence imaging (excitation: 488 nm, emission: 535 nm) in a system equipped with a 12 bit digital camera. Intensity values are reported as percent of initial values, after subtracting background (METAMORPHIC, Universal Imaging, Inc.).
To confirm that the DCFH dye is sensitive to oxidation by H2O2, additional studies are carried out in PA endothelia myocytes superfused with normoxic (16% O2) media in the presence of DCFH-DA (5 μM). […] When the H2O2-containing media is replaced with fresh media containing DCFH without H2O2, intracellular fluorescence decreased toward baseline values. These findings confirm that DCFH oxidation is sensitive to H2O2, and that oxidized DCF can leak out of viable cells and explain the decrease in fluorescence seen at reoxygenation.

[5] = test system: isolated lungs from the newborn rats; test: HPV responses in isolated lungs: PA pressure after agonist; design: species or system Sprague-Dawley rats; settings: 10 nM in recirculating perfusate
Method: as §1
HPV responses in isolated lungs from the newborn rats. […]

PA myocytes [6] = test: SYTOX Green membrane permeability check; assay type: cell-based, rat; settings: 300 μM, plasma membrane disruption
Method: Pulmonary microvessel myocyte isolation from the isolated lungs from the newborn rats. Myocytes are isolated using a modification of the method of Marshall et al. (______ (1999). Freshly excised rat heart and lungs are rinsed with phosphate-buffered saline (PBS) containing penicillin and streptomycin (1%). The right ventricle is cannulated and the pulmonary vasculature is flushed with the PBS (30 mL). Using the PA cannula, M199 growth media (30 mL) containing HEPES (25 mM), and penicillin and streptomycin (1%) plus low melting point agarose (0.5%) and iron particles (0.5%), is flushed through the pulmonary vasculature. Because the iron particles are too large to pass through the capillaries, only the arteries contained iron particles. The airways are filled via the trachea with M199 (15 mL) containing low melting point agarose (1%) without iron. The lungs are plunged into cold PBS to cause the agarose to gel. After 10 minutes, the lobes are dissected free and finely minced in a petri dish. […]
In steady state, increases in fluorescence occur when the rate of intracellular oxidation of the dye is accelerated. […] To confirm that the decrease in DCF fluorescence seen upon reoxygenation is not due to a loss of plasma membrane integrity, additional studies are carried out using SYTOX Green dye (100 nM) to detect changes in membrane permeability. […]

O=c1c2ccccc2[se]n1-c1ccccc1 [ebselen]
effect on U46619 vasoconstriction response ([1]; 50 μM): no effect

S=C(S)N1CCCC1 [PDTC, pyrrolidine dithiocarbamate]
solubility [2]: poorly soluble
effect on U46619 vasoconstriction response ([1]; 10 μM): augmented
pulmonary mean arterial pressure (MAP), edema, and cellular infiltration [3]: reduced
pulmonary oxygenation [3]: improved significantly

CCN(CC)C(=S)S [DDC, diethyldithiocarbamate]
effect on U46619 vasoconstriction response ([1]; 1 μM): no effect

antimycin A
effect on U46619 vasoconstriction response ([1]; 1 ng/mL): augmented

CO/C(=C/C(N)=O)[C@H](C)[C@H](/C=C/c1csc(-c2csc([C@@H](C)/C=C/C=C/C(C)C)n2)n1)OC [Myxothiazol, myxothiazol]
effect on U46619 vasoconstriction response ([1]; 50 μg/mL): no effect

C=C(C)[C@H]1Cc2c(ccc3c2O[C@@H]2COc4cc(OC)c(OC)cc4[C@@H]2C3=O)O1 [rotenone]
effect on U46619 vasoconstriction response ([1]; 50 ng/mL): augmented
effect on U46619 vasoconstriction response ([1]; 5 μg/mL, isolated perfused newborn rat lung): blunted

COC1=C(OC)C(=O)C(C/C=C(\C)CC/C=C(\C)CC/C=C(\C)CC/C=C(\C)CC/C=C(\C)CC/C=C(\C)CC/C=C(\C)CC/C=C(\C)CC/C=C(\C)CCC=C(C)C)=C(C)C1=O [CoQ10, 2,3-dimethoxy-5-methyl-6-decaprenyl-1,4-benzoquinone]
solubility [2]: only lipid soluble

O=S(=O)(O)c1cc(N=C=S)ccc1C=Cc1ccc(N=C=S)cc1S(=O)(=O)O [DIDS, 4,4′-diisothiocyanatostilbene-2,2′-disulphonic acid]
effect on U46619 vasoconstriction response ([1]; 200 μM): augmented

N#CC(C#N)=NNc1ccc(OC(F)(F)F)cc1 [FCCP, carbonyl cyanide p-trifluoromethoxyphenylhydrazone]
TMRE fluorescence (ΔΨm) (PA myocytes [4]): rapid, significant decrease in fluorescence

OO [H2O2]
intracellular DCF fluorescence (PA endothelia myocytes): increased significantly and progressively

Angiotensin II
increase of PA pressure [5]: ~2 cm H2O

c1ccc2c(c1)[I+]c1ccccc1-2 [DPI, diphenyleneiodonium]
effect on U46619 vasoconstriction response ([1]; 10 μM): augmented

C[C@@H]1CC[C@@]2(OC1)O[C@H]1[C@@H](O)[C@H]3[C@@H]4CC[C@H]5C[C@@H](O[C@@H]6O[C@H](CO)[C@H](O[C@@H]7O[C@H](CO)[C@@H](O)[C@H](O[C@@H]8OC[C@@H](O)[C@H](O)[C@H]8O)[C@H]7O[C@@H]7O[C@H](CO)[C@H](O)[C@H](O[C@@H]8O[C@H](CO)[C@@H](O)[C@H](O)[C@H]8O)[C@H]7O)[C@H](O)[C@H]6O)[C@H](O)C[C@]5(C)[C@H]4CC[C@]3(C)[C@H]1[C@@H]2C [digitonin]
nuclear staining with SYTOX Green (PA myocytes [6]): all cells demonstrated nuclear staining

B1: recombinant human IκB-α: recombinant human IκB-α which can maintain the inhibitory effect on NF-κB (protein, UniProt P25963 1-317, looked up)
NF-kappa-B inhibitor alpha: MFQAAERPQEWAMEGPRDGLKKERLLDDRHDSGLDSMKDEEYEQMVKELQEIRLEPQEVPRGSEPWKQQLTEDGDSFLHLAIIHEEKALTMEVIRQVKGDLAFLNFQNNLQQTPLHLAVITNQPEIAEALLGAGCDPELRDFRGNTPLHLACEQGCLASVGVLTQSCTTPHLHSILKATNYNGHTCLHLASIHGYLGIVELLVSLGADVNAQEPCNGRTALHLAVDLQNPDLVSLLLKCGADVNRVTYQGYSPYQLTWGRPSTRIQQQLGQLTLENLQMLPESEDEESYDTESEFTEFTEDELPYDDCVFGGQRLTL
solubility [2]: poorly soluble
